Where two headings read alike, the source gives them in different places. Peptide text beside a SMILES is read from it. * marks the point of attachment. Cbz = O=C(OCc1ccccc1)*
What was measured:
Assay type in all cases: biochemical, Streptomyces hygroscopicus
activated pro-TGase [1] = system: T1, activated pro-TGase; assay: colorimetric hydroxamate assay at […] nm, Lineweaver-Burk; conditions: hydroxylamine co-substrate (assay b48), 50 mmol/L Tris-HCl pH 6.0; substrate 6-30 mmol/L (below Km); dispase-activated; read-out: N160Q
T1 construct: pro-TGase behind XPR2 pre signal, secreted by Yarrowia lipolytica Po1h (pINA1297), N-glycosylated; no tag mentioned

activated pro-TGase [2] = system: T1, activated pro-TGase; assay: as above; conditions: hydroxylamine co-substrate (assay b48), 50 mmol/L Tris-HCl pH 6.0; substrate 6-30 mmol/L (below Km); dispase-activated; read-out: N355Q
activated pro-TGase [3] = system: T1, activated pro-TGase; assay: as above; conditions: hydroxylamine co-substrate (assay b48), 50 mmol/L Tris-HCl pH 6.0; substrate 6-30 mmol/L (below Km); dispase-activated; read-out: N160Q/N355Q
[4] = system: T2, NC(=O)CC[C@H](NC(=O)OCc1ccccc1)C(=O)NCC(=O)O; assay: purified protein; conditions: hydroxylamine co-substrate (assay b48), 50 mmol/L Tris-HCl pH 6.0, substrate 6-30 mmol/L (below Km), dispase-activated, 37.0 °C
T2 construct: pro-TGase behind XPR2 pre signal, secreted by Yarrowia lipolytica Po1h (pINA1297), N-glycosylated; no tag mentioned

| Km (activated pro-TGase [1]) [mM] | Km (activated pro-TGase [2]) [mM] | Km (activated pro-TGase [3]) [mM] | Compound | Km [4] [mmol/L] | kcat [4] [s⁻¹] |
| --- | --- | --- | --- | --- | --- |
| 47 ± 1.5 | 54.7 ± 2.1 | 48.4 ± 2.4 | NC(=O)CC[C@H](NC(=O)OCc1ccccc1)C(=O)NCC(=O)O [N-CBZ-Gln-Gly] (Cbz-Gln-Gly-OH) | – | – |
| – | – | – | activated pro-TGase (wild type) (Streptomyces hygroscopicus) | 59.5 ± 2.3 | 31.5 ± 1.7 |

From publication PMC4535380, “Overproduction of pro-transglutaminase from Streptomyces hygroscopicus in Yarrowia lipolytica and its biochemical characterization” (BMC Biotechnology, 2015)
